Results reported in patent publication US4593090A, “Novel nitrosourea compounds, method for preparing same, and pharmaceutical composition containing same” (Gogo Kimura, priority 1981, dated 1986).
Where two headings read alike, the source gives them in different places.

Experiments:
[1] = tested on: Leukemia L1210; test: Activity against Leukemia L1210, oral, increase in life span of mice; assay type: in vivo, female mice (BDF1 family); conditions: for ED (maximum ILS) / ED30: Mus musculus, L1210, oral once a day for 5 successive days; for ED (maximum ILS): daily dosage giving maximum increase of life span, read-out: O.D. (optimum dosage); for ED30: daily dosage increasing average survival days by 30%, read-out: ILS30; for Survivors after 60 days / Max. ILS % / Therapeutic ratio TR: oral; for Survivors after 60 days: 6-membered group; for Max. ILS %: 60-day observation, versus control; for Therapeutic ratio TR: O.D./ILS30
Outline: (§1)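 Dosing started 24 h after ip implantation of 1×10^5 L1210 cells into groups of 6 female BDF1 mice, by ip or oral route daily for 5 consecutive days. Survival was followed for 60 days; increase in life span was scored against untreated mice, with therapeutic ratio from optimum dose over ILS30 dose.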

[2] = Acute toxicity (LD50, Behrens-Karber method); assay type: in vivo, ICR mice; conditions: mouse, in vivo, ip, mortality during 30 days
Experimental: Test compounds, dissolved or suspended in 0.5% aqueous CMC, were each intraperitoneally administered to ICR mice in a dose of 0.1 ml per 10 g body weight. LD50 (mg/kg) value of each test compound was calculated from the mortality of mice during 30 days by the Behrens-Karber method.

[3] = tested on: Leukemia L1210; test: Activity against Leukemia L1210, intraperitoneal, increase in life span of mice; assay type: in vivo, female mice (BDF1 family); conditions: for ED (maximum ILS) / ED30: Mus musculus, L1210, ip, ip once a day for 5 successive days; for ED (maximum ILS): daily dosage giving maximum increase of life span, read-out: O.D. (optimum dosage); for ED30: daily dosage increasing average survival days by 30%, read-out: ILS30; for Survivors after 60 days / Max. ILS % / Therapeutic ratio TR: ip; for Survivors after 60 days: 6-membered group; for Max. ILS %: 60-day observation, versus control; for Therapeutic ratio TR: O.D./ILS30
Outline: as §1

[4] = tested on: Ehrlich acites carcinoma; test: Growth-inhibiting effect against Ehrlich acites carcinoma; assay type: in vivo, male mice; conditions: Mus musculus, Ehrlich, 120 h, 5 days; for response vs control in vivo at 25 mg/kg: 25 mg/kg/day ip; for response vs control in vivo at 100 mg/kg: 100 mg/kg/day ip
Outline: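 Activity graded from T/C% of total packed ascites cell volume on day 7 (treated vs untreated): - 100-66, + 65-41, ++ 40-11, +++ 10-0. Groups of 6 male mice bore 1×10^7 i.p.-implanted cells and received compound (1% Nikkol HCO-60) i.p. daily for 5 days from 24 hrs after implantation.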

[5] = Diuretic activity, acute sodium loaded mouse screening test; assay type: in vivo, male mice; conditions: 50 mg/kg oral in 1% saline; for Cl^- / K^+ / Na^+: urine
Experimental: The diuretic activity of the compounds of this invention was assayed by the diuresis screening test referred to as "acute sodium loaded mouse". This test was carried out by the following method.
The acute sodium loaded mouse screening test was carried out by using a 10-membered group of male mice (each weighing 18 to 24 g). Test compounds were incorporated in 1% saline (NaCl) solution and orally administered in a volume of 10 ml/kg. The mice were placed in metabolic cages. Each treated group consisted of 10-members. Five members were placed in one cage. Tests were conducted by oral administrations of (A) 1% saline (NaCl) solution to the control group and (B) 1% saline (NaCl) solution containing a test compound according to this invention.
The determination was carried out for sodium, potassium, and chlorine in each pooled urine sample. The determination of sodium and potassium was carried out by flame photometer. Chlorine was determined by chloride analysis apparatus. The analytical values of sodium, potassium, and chlorine were shown with an average mg equivalent (m Eq)/Kg/5 hours, and the diuretic activity was shown with an average urine volume (ml)/Kg/5 hours.

Row | SMILES | ED (maximum ILS) [1] [mg/kg] | ED30 [1] [mg/kg] | Survivors after 60 days [1] | Max. ILS % [1] [%] | Therapeutic ratio TR [1] | LD50 at 720 h [2] [mg/kg] | ED (maximum ILS) [3] [mg/kg] | ED30 [3] [mg/kg] | Survivors after 60 days [3] | Max. ILS % [3] [%] | Therapeutic ratio TR [3] | response vs control in vivo at 25 mg/kg ([4]; read-out: Activity) [%] | response vs control in vivo at 25 mg/kg ([4]; read-out: T/C %) [%] | response vs control in vivo at 100 mg/kg ([4]; read-out: Activity) [%] | response vs control in vivo at 100 mg/kg ([4]; read-out: T/C %) [%] | Urine volume [5] [ml/kg/5 hrs.] | Cl^- [5] [mEq/kg/5 hrs.] | K^+ [5] [mEq/kg/5 hrs.] | Na^+ [5] [mEq/kg/5 hrs.]
1 | CC(C)CO[C@H]1O[C@H](CN(CC2CCCO2)C(=O)N(CCCl)N=O)[C@@H](O)[C@H](O)[C@H]1O (stereo partly drawn) [Compound 23, 3-tetrahydrofurfuryl-3-(isobutyl α-D-glucopyranose-6-yl)-1-(2-chloroethyl)-1-nitrosourea] | 250 | 8.74 | 5/6 | > 625 | 28.6 | 620 | 200 | 3 | 5/6 | > 630 | 66.7 | 0 to 10 | 0 | 0 to 10 | 0 | 10.2 | 0.8 | 1.0 | 0.7
2 | COCCN(C[C@H]1O[C@H](OC2CCCCC2)[C@H](O)[C@@H](O)[C@@H]1O)C(=O)N(CCCl)N=O [Compound 39, 3-(2-methoxyethyl)-3-(cyclohexyl α-D-glucopyranose-6-yl)-1-(2-chloroethyl)-1-nitrosourea] | 220 | 7.43 | 5/6 | > 635 | 29.6 | 510 | 170 | 2.47 | 6/6 | > 700 | 68.8 | 0 to 10 | 0 | 0 to 10 | 0 | 9.2 | 0.7 | 0.8 | 0.6
3 | COCCCN(C(=O)N(CCCl)N=O)C1C(OCC(C)C)OC(CO)C(O)C1O [Compound 74, 3-(3-methoxy-n-propyl)-3-(isobutyl α-D-glucopyranose-2-yl)-1-(2-chloroethyl)-1-nitrosourea] | – | – | – | – | – | 560 | 170 | 3.92 | 6/6 | > 700 | 43.2 | 0 to 10 | 0 | 0 to 10 | 0 | 9.4 | 0.7 | 0.8 | 0.6
4 | COC(C)CN(C(=O)N(CCCl)N=O)C1C(O)C(CO)OC(OC2CCCCC2)C1O [Compound 86, 3-(2-methoxy-n-propyl)-3-(cyclohexyl α-D-glucopyranose-3-yl)-1-(2-chloroethyl)-1-nitrosourea] | – | – | – | – | – | 695 | 200 | 4.9 | 4/6 | > 430 | 40.8 | 0 to 10 | 0 | 0 to 10 | 0 | 10.2 | 0.9 | 1.0 | 0.7
